Assay results reported in article PMC6340882, “Targeting protein kinase CK2 and CDK4/6 pathways with a multi-kinase inhibitor ON108110 suppresses pro-survival signaling and growth in mantle cell lymphoma and T-acute lymphoblastic leukemia” (Oncotarget, 2018).

Assays:
[1] = tested on: Granta-519 and CEM cells; assay: Cell cycle analysis, propidium iodide staining and flow cytometry; assay type: cell-based, human; settings: 0.5-2.0μM, 24 hours
Experimental: Figure 5 Modulation of cell cycle expression and induction of apoptosis in ON 108110-treated MCL and T-ALL cell lines (A) CEM and Granta-519 cells were treated with either DMSO or increasing concentrations of ON108110 (0.5-2.0μM) for 24 hours. Cell cycle analysis was performed using propidium iodide staining. (B) CEM, HBL-2, RS4-11 and Granta-519 cells were treated with either DMSO (vehicle) or increasing concentrations of ON108110 (0.5-2.0 μM) for 24 hours and stained with Annexin V/DAPI (C) Graphical representation of apoptosis induced as shown in B. (D) Granta-519 cells were treated with increasing concentrations of ON108110 for 24 hours. Caspase activation and viability were measured using the Caspase Glo 3/7 and Cell Titer Blue assay kits, respectively. […]
To determine cell cycle distribution, 70% ethanol fixed cells were washed with phosphate buffered saline (PBS), resuspended in PBS and incubated with RNase and propidium iodide at 37°C for 20 min. DNA content was analyzed on a FACS Calibur (BD Immunocytometry Systems) and the data analyzed using Flowjo software (Treestar). Annexin V staining was measured using the FITC Annexin V Apoptosis Detection Kit I (BD Biosciences) according to the instructions of the manufacturer except that DAPI was substituted at a concentration of […] to measure DNA content.

[2] = molecular target: T1, recombinant CK2α1 kinase domain (Homo sapiens, UniProt P68400); assay: Differential scanning fluorimetry (DSF); assay type: binding; settings: apo protein Tm 58°C
T1 construct: Amino acid residues 3-335 of CK2α1 were cloned using BamH1 and HindIII into pET28bsmt3-SUMO fusion vector; His6 (N, cleaved yes); SUMO (N, cleaved yes); made in house; host or cells: Escherichia coli BL21-DE3 (RIL)
T1 sequence (P68400 3-335): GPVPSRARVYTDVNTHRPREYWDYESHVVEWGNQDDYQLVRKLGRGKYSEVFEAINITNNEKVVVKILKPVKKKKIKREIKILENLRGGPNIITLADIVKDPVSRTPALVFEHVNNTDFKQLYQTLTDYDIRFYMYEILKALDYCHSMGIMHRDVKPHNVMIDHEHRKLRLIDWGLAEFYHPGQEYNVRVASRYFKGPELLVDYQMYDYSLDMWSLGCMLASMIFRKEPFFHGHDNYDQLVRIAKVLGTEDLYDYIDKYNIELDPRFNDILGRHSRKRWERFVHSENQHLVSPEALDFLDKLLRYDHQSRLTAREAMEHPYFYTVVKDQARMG
Experimental: 1μM of in-house purified recombinant CK2α1 was diluted in protein buffer and added to a final concentration of 1X of Sypro Orange Dye in the presence of DMSO or increasing concentrations of ON108110. Following a 20 min incubation at room temperature, 20μl samples were pipetted into a clear MicroAmp Fast 96-well Reaction PCR plates and sealed with MicroAmp Optical Adhesive Film. The assay was performed using a StepOne Plus RT-PCR instrument (Applied Biosystems) using an increasing temperature gradient of 20 to 90°C in 0.2°C increments using a 200- millisecond stabilization delay. Florescence readings were acquired with excitation and emission wavelengths of 580±10 nm and 624±14 nm respectively. A customized analysis program (Step One Plus Protein Thermal Shift Software) was used to calculate the Tm from each fluorescence profile (Boltzmann method) and the Tm of the fluorescence (derivative method). Derivative Tm values were obtained from the top of the peak in the derivative plot, while the Boltzmann Tm values calculated from the inflection point of the fluorescence plot.

In the case of CC(=O)Oc1ccc(/C=C2\Sc3ccc(F)cc3NC2=O)cc1[N+](=O)[O-] [ON108110], the “effect on cell cycle progression” value [1] was “rapid accumulation of the cells in the G1 phase”, the “melting temperature (Tm) of CK2α1 with compound” value [2] was 64.8 °C and the “shift in the Tm of CK2α1” value [2] was 6.8 °C.
